{"source": "patent US11154589B2", "about": "“Antimicrobial composition combinations comprising star shaped peptide polymers” (The University of Melbourne, priority 2016, dated 2021)", "key": {"[1]": {"test_system": "Acinetobacter baumannii (A. baumannii, ATCC 19606)", "assay": "MBC determination (in vitro antimicrobial experiment, CFU counting)", "format": "cell-based", "conditions": "compound alone; A. baumannii (wild-type)", "description": "(§1) Freeze-dried cultures of Escherichia coli (E. coli, ATCC 25922), Klebsiella pneumoniae (K. pneumoniae, ATCC 13883), Pseudomonas aeruginosa (P. aeruginosa, ATCC 47085), Acinetobacter baumannii (A. baumannii, ATCC 19606), colistin and multidrug-resistant (CMDR) A. baumannii (FADDI-AB156), and CMDR P. aeruginosa (FADDI-PA067) were grown aerobically and maintained by passage at ambient temperature on horse blood agar (10% v/v defibrinated horse blood, 4.4% w/v Oxoid Blood Agar Base No. 2). Overnight cultures were made from transferring a colony (ca. half a loop) from the agar plates to culture tubes containing sterilized Luria-Bertani broth (LB, 1% w/v Bacto™ Tryptone, 1% w/v NaCl, 0.5% w/v Oxoid Yeast Extract) (20 mL). Bacterial cultures were incubated overnight at 37° C. with aeration and without agitation, with the exception of the two P. aeruginosa strains (ATCC 47085 and FADDI-PA067) which were cultured at 37° C. with aeration and agitation (150 rpm). On the next day, for E. coli, K. pneumonia, P. aeruginosa (ATCC 47085), and CMDR P. aeruginosa (FADDI-PA067), small aliquots (i.e., 0.5-3 mL) were taken from the culture tubes, further diluted with LB (20 mL), and incubated for 3-4 h at 37° C. with aeration before use. All bacterial cultures were cultured without agitation, with the exception of P. aeruginosa ATCC 47085 and FADDI-PA067 which were cultured with shaking at 150 rpm. For A. baumannii, an aliquot of 0.5 mL was taken from the overnight culture tube, further diluted with LB (200 mL), and incubated overnight at 37° C. with aeration before use.\n(§2) The 96-well plate was then incubated at 37° C. for 1.5 or 3 h. For each well, microbial solution was diluted with saline (0.9% NaCl solution) using an appropriate dilution factor and placed on a LB agar plate (LB broth containing 15 g/L Oxoid Blood Agar Base No. 2). For E. coli, K. pneumoniae, and A. Baumannii (ATCC 19606 and FADDI-AB156), the agar plates were incubated overnight at room temperature, and then at 37° C. with aeration for 2 h. For P. Aeruginosa (ATCC 47085 and FADDI-PA067), the agar plates were incubated at 37° C. with aeration. The number of colony-forming units (CFU) was counted and expressed as CFU/mL. Positive controls consisting of cells without any treatment were used. […] A minimum of two independent experiments (biological replicates) of the assay were conducted and three technical replicates were used in each experiment. Data is expressed as mean±standard deviation (SD) and analysed using student's t-test."}, "[2]": {"test_system": "Escherichia coli (E. coli, ATCC 25922)", "assay": "MBC determination (in vitro antimicrobial experiment, CFU counting)", "format": "cell-based", "conditions": "compound alone", "description": "as §1, §2"}, "[3]": {"test_system": "Klebsiella pneumoniae (K. pneumoniae, ATCC 13883)", "assay": "MBC determination (in vitro antimicrobial experiment, CFU counting)", "format": "cell-based", "conditions": "compound alone", "description": "as §1, §2"}, "[4]": {"test_system": "Pseudomonas aeruginosa (P. aeruginosa, ATCC 47085)", "assay": "MBC determination (in vitro antimicrobial experiment, CFU counting)", "format": "cell-based", "conditions": "compound alone; P. aeruginosa (wild-type)", "description": "as §1, §2"}, "[5]": {"test_system": "CMDR P. aeruginosa (FADDI-PA067)", "assay": "MBC determination (in vitro antimicrobial experiment, CFU counting)", "format": "cell-based, Pseudomonas aeruginosa", "conditions": "compound alone", "description": "as §1, §2"}, "[6]": {"test_system": "CMDR A. baumannii (FADDI-AB156)", "assay": "MBC determination (in vitro antimicrobial experiment, CFU counting)", "format": "cell-based, Acinetobacter baumannii", "conditions": "compound alone", "description": "as §1, §2"}, "[7]": {"test_system": "Acinetobacter baumannii (A. baumannii, ATCC 19606)", "assay": "S16-antibiotic co-administration, synergy by Bliss Independence and HSA models", "format": "cell-based", "description": "as §2\n(§3) The Bliss Independence and HSA models were used to calculate drug synergism. […] Biotechnol. 31, 160-165 (2013). With the Bliss Independence model, synergism was calculated using the formula, BICAB=A+B−AB (1), where A and B are the effects of the two drugs in isolation and BICAB is the combined effect of the two drugs as predicted by the Bliss Independence model. […] In the HSA model, if CAB is greater than the greater of A and B, CAB>max(A, B), synergy is observed. The quantitative effect of the compounds when administered alone (i.e., A and B) or in combination (i.e., CAB) was defined as the fractional reduction of the population, R=1−CFUt/CFU0, where CFUt is the CFU/mL measured after treatment, and CFU0 is the CFU/mL measured before treatment."}, "[8]": {"test_system": "Escherichia coli (E. coli, ATCC 25922)", "assay": "S16-antibiotic co-administration, synergy by Bliss Independence and HSA models", "format": "cell-based", "description": "as §2, §3"}, "[9]": {"test_system": "Klebsiella pneumoniae (K. pneumoniae, ATCC 13883)", "assay": "S16-antibiotic co-administration, synergy by Bliss Independence and HSA models", "format": "cell-based", "description": "as §2, §3"}, "[10]": {"test_system": "Pseudomonas aeruginosa (P. aeruginosa, ATCC 47085)", "assay": "S16-antibiotic co-administration, synergy by Bliss Independence and HSA models", "format": "cell-based", "description": "as §2, §3"}, "[11]": {"test_system": "CMDR P. aeruginosa (FADDI-PA067)", "assay": "S16-antibiotic co-administration, synergy by Bliss Independence and HSA models", "format": "cell-based, Pseudomonas aeruginosa", "description": "as §2, §3"}, "[12]": {"test_system": "CMDR A. baumannii (FADDI-AB156)", "assay": "S16-antibiotic co-administration, synergy by Bliss Independence and HSA models", "format": "cell-based, Acinetobacter baumannii", "description": "as §2, §3"}, "[13]": {"test_system": "rat hepatoma (H4IIE) cells", "assay": "Apoptosis/necrosis assay (mammalian cell viability)", "conditions": "single agent at a dose equivalent to its MBC (against CMDR A. baumannii); 90 min incubation", "method": "Rat hepatoma cells (H4IIE) were cultivated in DMEM medium (supplemented with 10% FBS, 1× GlutaMAX™, and 1× penicillin-streptomycin) in a humidified atmosphere containing 5% CO2 at 37° C. Cells were seeded in a T75 flask (ca. 3×10^6 cells/ml) and passaged twice a week prior to performing the subsequent cell viability studies.\nAdherent H4IIE cells (obtained from the ATCC, and throughout the course of the study cells were checked for mycoplasma contamination using Mycoplasma stain kit, Myc1, Sigma) were grown to 80% confluence and trypsinised prior to assay. H4IIE cells were chosen for this study as they are standard cell lines used in toxicity studies. Cells were diluted 1:2 with ‘complete’ DMEM and seeded in a 24-well plate (1 mL per well). The cells were incubated at 37° C. in 5% CO2 for 24 h until ca. 95% confluence. The medium was removed. […] The cells were then harvested and all well contents were transferred to round-bottomed polypropylene tubes (5 mL). The cells were washed with cold DPBS, then stained with YO-PRO®-1 and PI (0.2 mL from a stock solution, whereby both dyes were diluted 1:1000 in cold DPBS, per well), and incubated on ice for 20 to 30 min. The cells were analyzed by flow cytometry (Cytomics FC 500 MPL System). Standard compensation was performed using single-colour stained cells. Negative controls using untreated cells were included. […]"}, "[14]": {"conditions": "S16 and antibiotic co-administered, each at MBC50, 3 h"}, "[15]": {"conditions": "antibiotic in combination with S16, 3 h, Bliss Independence model"}, "[16]": {"conditions": "antibiotic in combination with S16, 3 h, Highest Single Agent model"}, "[17]": {"conditions": "co-administered S16 (at MBC50) and antibiotic, antibiotic concentration giving at least 2-log reduction in CFU/mL, 3 h"}}, "note": "Values joined by “and” are separate entries in the source; they are usually repeats but may differ in a detail not shown here. Identical values can stand only once. Marks after values point to notes of the source that are not given here."}
{"smiles": "O=[N+]([O-])[O-].[Ag+]", "note": "[Ag^+, silver nitrate]", "values": [{"measurement": "MBC", "setting": "[1]", "result": 8.2, "unit": "µM"}, {"measurement": "MBC", "setting": "[2]", "result": 3.5, "unit": "µM"}, {"measurement": "MBC", "setting": "[3]", "result": 10.6, "unit": "µM"}, {"measurement": "MBC", "setting": "[4]", "result": 1.2, "unit": "µM"}, {"measurement": "MBC", "setting": "[5]", "result": 38.3, "unit": "µM"}, {"measurement": "MBC", "setting": "[6]", "result": 10.6, "unit": "µM"}, {"measurement": "Interaction with S16 as evaluated by the Bliss Independence and HSA models (in words)", "setting": "[7]; A. baumannii wild-type, 3 h time point", "result": "synergize"}, {"measurement": "Antimicrobial activity on co-administration with S16 compared to compounds alone (log change in CFU/mL)", "setting": "[7]; A. baumannii wild-type, all compounds at MBC50, t=3 h", "result": "significantly enhanced antimicrobial activity"}, {"measurement": "MBC in combination", "setting": "[7]; A. baumannii, S16 and antibiotic co-administered, each at MBC50, 3 h", "result": 4.1, "unit": "µM"}, {"measurement": "Synergistic? (Yes/No) Bliss*", "setting": "[7]; antibiotic in combination with S16, A. baumannii, 3 h, Bliss Independence model", "result": "Yes"}, {"measurement": "Synergistic? (Yes/No) HAS*", "setting": "[7]; antibiotic in combination with S16, A. baumannii, 3 h, Highest Single Agent model", "result": "Yes"}, {"measurement": "Interaction with S16 as evaluated by the Bliss Independence and HSA models (in words)", "setting": "[8]; 3 h time point", "result": "synergize"}, {"measurement": "MBC in combination", "setting": "[8]; [14]", "result": 1.8, "unit": "µM"}, {"measurement": "Antimicrobial activity on co-administration with S16 compared to compounds alone (log change in CFU/mL)", "setting": "[8]; all compounds at MBC50, t=3 h", "result": "significantly enhanced antimicrobial activity"}, {"measurement": "Synergistic? (Yes/No) Bliss*", "setting": "[8]; [15]", "result": "Yes"}, {"measurement": "Synergistic? (Yes/No) HAS*", "setting": "[8]; [16]", "result": "Yes"}, {"measurement": "Interaction with S16 as evaluated by the Bliss Independence and HSA models (in words)", "setting": "[9]; 3 h time point", "result": "synergize"}, {"measurement": "MBC in combination", "setting": "[9]; [14]", "result": 5.3, "unit": "µM"}, {"measurement": "Antimicrobial activity on co-administration with S16 compared to compounds alone (log change in CFU/mL)", "setting": "[9]; all compounds at MBC50, t=3 h", "result": "significantly enhanced antimicrobial activity"}, {"measurement": "Synergistic? (Yes/No) Bliss*", "setting": "[9]; [15]", "result": "Yes"}, {"measurement": "Synergistic? (Yes/No) HAS*", "setting": "[9]; [16]", "result": "Yes"}, {"measurement": "Interaction with S16 as evaluated by the Bliss Independence and HSA models (in words)", "setting": "[10]; P. aeruginosa wild-type, 3 h time point", "result": "synergize"}, {"measurement": "Antimicrobial activity on co-administration with S16 compared to compounds alone (log change in CFU/mL)", "setting": "[10]; P. aeruginosa wild-type, all compounds at MBC50, t=3 h", "result": "significantly enhanced antimicrobial activity"}, {"measurement": "MBC in combination", "setting": "[10]; P. aeruginosa, S16 and antibiotic co-administered, each at MBC50, 3 h", "result": 0.5, "unit": "µM"}, {"measurement": "Synergistic? (Yes/No) Bliss*", "setting": "[10]; antibiotic in combination with S16, P. aeruginosa, 3 h, Bliss Independence model", "result": "Yes"}, {"measurement": "Synergistic? (Yes/No) HAS*", "setting": "[10]; antibiotic in combination with S16, P. aeruginosa, 3 h, Highest Single Agent model", "result": "Yes"}, {"measurement": "Interaction with S16 as evaluated by the Bliss Independence and HSA models (in words)", "setting": "[11]; 3 h time point", "result": "synergize"}, {"measurement": "Fold reduction of MBC", "setting": "[11]; MBCeff with S16 versus MBC alone", "result": 6.5, "unit": "fold"}, {"measurement": "MBC in combination", "setting": "[11]; [14]", "result": 11.8, "unit": "µM"}, {"measurement": "Antimicrobial activity on co-administration with S16 compared to compounds alone (log change in CFU/mL)", "setting": "[11]; all compounds at MBC50, t=3 h", "result": "Enhanced antimicrobial activity"}, {"measurement": "Synergistic? (Yes/No) Bliss*", "setting": "[11]; [15]", "result": "Yes"}, {"measurement": "Synergistic? (Yes/No) HAS*", "setting": "[11]; [16]", "result": "Yes"}, {"measurement": "MBC in combination, MBCeff", "setting": "[11]; [17]", "result": "5.9^a μM"}, {"measurement": "Interaction with S16 as evaluated by the Bliss Independence and HSA models (in words)", "setting": "[12]; 3 h time point", "result": "synergize"}, {"measurement": "Fold reduction of MBC", "setting": "[12]; MBCeff in combination versus MBC alone", "result": 3.7, "unit": "fold"}, {"measurement": "MBC in combination", "setting": "[12]; [14]", "result": 2.9, "unit": "µM"}, {"measurement": "Antimicrobial activity on co-administration with S16 compared to compounds alone (log change in CFU/mL)", "setting": "[12]; all compounds at MBC50, t=3 h", "result": "Enhanced antimicrobial activity"}, {"measurement": "Synergistic? (Yes/No) Bliss*", "setting": "[12]; [15]", "result": "Yes"}, {"measurement": "Synergistic? (Yes/No) HAS*", "setting": "[12]; [16]", "result": "Yes"}, {"measurement": "MBC in combination, MBCeff", "setting": "[12]; [17]", "result": "2.9 μM and 2.9^a μM"}, {"measurement": "H4IIE cell viability reduced by, compared to the untreated control", "setting": "[13]", "result": 33, "unit": "%"}]}
